Experimental data taken from patent publication US20110162097A1, “NUCLEOTIDE SEQUENCE ENCODING AN ALCOHOL DEHYDROGENASE FROM ARTEMISIA ANNUA AND USES THEREOF” (priority 2008, published 2011).

What was measured:
Plasmodium falciparum = conditions: reported to be more active than artesunate; cited from earlier work
[1] = molecular target: T1, ADH1 (Artemisia annua alcohol dehydrogenase) (Artemisia annua, UniProt A0A2U1Q018, G20S/L19S/V78I); test: Specific ADH1 activity enzyme assay (crude protein from E. coli, NAD+, GC/MS analysis); type: biochemical; conditions: 1 mM NAD+, 0.1 μg/μl substrate, approximately 90 μg crude protein, 30° C., 30 minutes
T1 construct: 6xHis (N-terminal tag and attB linker encoded by pDEST17); made in house; host or cells: E. coli Rosetta (DE3)
Method: The Gateway vector pDEST17 had the Adh1 gene inserted and was subsequently transformed into a competent expression E. coli strain Rosetta (DE3). These cells were grown overnight in 3 ml of LB broth amended with 100 μg/ml ampicillin. An aliquot of 1 ml overnight culture was sub cultured to 100 ml of fresh LB broth also amended with 100 μg/ml of ampicillin. The culture was incubated at 37° C. until the optical density reached 0.8 at 600 nm. A final concentration of 1 mM IPTG was then added to the culture and the flask was incubated at 30° C. for another 4 hours. Cells were harvested by centrifugation at 10,000 rcf for 10 minutes. Pelleted cells were resuspended in 20 mM sodium phosphate pH 7.4 and 500 mM NaCl. Cell walls were disrupted by sonication on ice at intervals of 0.7 seconds for 1 minute, followed by a 1 minute cool down this was repeated three times. The sonicated cells were centrifuged at 10,000 rcf for 10 minutes; the supernatant which contained the soluble ADH1 was concentrated and desalted by spin dialysis (using Amicon Ultra-15 devices; Millipore, Mass.), and stored in a new tube at 4° C. This method of recombination and expression was also used for a control plasmid pDEST17-gus.
Enzyme assay was prepared to determine the specific activity of ADH1. […]

T1 sequence (A0A2U1Q018 whole entry L19S/G20S/V78I): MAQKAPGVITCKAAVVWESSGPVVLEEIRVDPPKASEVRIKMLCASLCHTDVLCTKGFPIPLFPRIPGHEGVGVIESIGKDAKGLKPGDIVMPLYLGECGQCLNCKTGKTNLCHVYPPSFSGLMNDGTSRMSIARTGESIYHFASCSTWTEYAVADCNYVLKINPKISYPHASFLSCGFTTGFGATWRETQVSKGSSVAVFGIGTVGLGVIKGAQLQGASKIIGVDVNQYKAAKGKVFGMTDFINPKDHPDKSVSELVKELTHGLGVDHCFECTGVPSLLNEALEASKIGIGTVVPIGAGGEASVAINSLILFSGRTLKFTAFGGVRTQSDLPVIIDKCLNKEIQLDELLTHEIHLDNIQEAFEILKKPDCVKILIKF

SMILES: C[C@H]1[C@H](N2CCS(=O)(=O)CC2)O[C@@H]2O[C@@]3(C)CC[C@H]4[C@H](C)CC[C@@H]1[C@@]24OO3 [Artemisone]
- activity relative to artesunate (Plasmodium falciparum): 10-30 fold

SMILES: C=C(CO)[C@@H]1CC[C@@H](C)[C@@H]2CCC(C)=C[C@@H]21 [artemisinic alcohol]
- oxidation of substrate by ADH1 (product observed by GC/MS) [1]: presence of product artemisinic aldehyde

SMILES: CC1=C[C@H]2[C@@H](CC1)[C@H](C)CC[C@H]2[C@@H](C)CO [dihydroartemisinic alcohol, (11R)-dihydroartemisinic alcohol]
- oxidation of substrate by ADH1 (product observed by GC/MS) [1]: no observed product
